The results in this text go back to PMC11053681, “Gold(I) and Silver(I) Complexes Containing Hybrid Sulfonamide/Thiourea Ligands as Potential Leishmanicidal Agents” (Pharmaceutics, 2024).

Entries after “also recorded” stand apart in the source; their conditions may differ. Where two headings read alike, the source gives them in different places.

Broadly, the IC50 is the concentration that gives 50% inhibition. For orientation: CC50 means the concentration at which the toxic effect on the cells reaches its halfway point.

The test system of one series is Leishmania infantum. Briefly: Leishmanicidal activity against promastigotes (resazurin). The class given is cell-based. Conditions: for IC50: promastigote form, 24 h treatment, resazurin, read-out: IC50 L. infantum; for SI L. infantum: selectivity index = CC50 (Vero) / IC50 (L. infantum promastigotes). As for the experimental part: (§1) The Leishmania infantum and Leishmania braziliensis strains were maintained in Schneider medium supplemented with 20% of SFB (Schneider 20%), cultivated in […] bottles and stored at 28 °C in a BOD oven. For the assays, parasites at the 5th day stationary growth phase were used.
(§2) The promastigotes metacyclic form of Leishmania infantum and Leishmania braziliensis were first filtered with an insulin syringe to break up rosettes and, then, were isolated from the culture in the stationary phase by centrifugation of 400× g for 4 min at a temperature of 4 °C [53]. The supernatant was subjected to a new centrifugation, heavier, of 2000× g for 30 min, also at 4 °C. The supernatant was discarded and the cell pallet formed from this centrifugation was resuspended in 10 mL of 10% Schneider medium. The process ensured the removal of cellular debris and dead parasites, as well as possible crystals from the culture medium, so that the quality of the experiment was guaranteed. Then, the promastigotes were diluted to 1:10 in paraformaldehyde (PFA) for counting in a Neubauer Chamber, with the concentrations adjusted for each experiment.
(§3) An amount of 1 × 10^7 parasites per well was used. The parasites were plated in 96-well plates. Then, the compounds were added in triplicate, starting at a concentration of 500 µM, with serial dilutions being performed up to a concentration of 3.9 µM [53]. The treatment was carried out for 24 h and, after adding 5 µL of resazurin, the fluorescence was read using a Enspire model spectrofluorometer (Perkin-Elmer, Waltham, MA, USA).
(Resazurin is reduced to fluorescent resorufin, in cell work by metabolically active cells.)

The test system of a further series is Leishmania braziliensis. The description is as above. Conditions: for IC50: promastigote form, 24 h treatment, resazurin, read-out: IC50 L. braziliensis; for SI L. braziliensis: selectivity index = CC50 (Vero) / IC50 (L. braziliensis promastigotes). The class given is cell-based. As for the experimental part:
as §1, §2, §3

The test system of the next series is Vero cells. Briefly: Cytotoxicity assay on Vero cells (resazurin). The class given is cell-based, African green monkey. Conditions: 24 h treatment. The protocol:
(§4) For the experiment, Vero cells (ATCC CRL-1587) were used in Roswell Parl Memorial Institute (RPMI) medium with 10% fetal bovine serum (FBS) (RPMI 10%) and 20 μg/mL of Gentamicin. They were cultivated in culture bottles of […] and kept in an oven at 37 °C with 5% carbon dioxide (CO2). When picked or used on the day of the experiment, the cells were detached from the wall of the bottles with saline and 1X trypsin/EDTA. To find out how many cells there were in the bottle, it was diluted in Turkey liquid and then we proceeded with the counting in the Neubauer Chamber to calculate the desired concentrations. The Vero cells were plated at […] cells per well, in 96-well plates, and kept in an incubator with 5% CO2 at 37 °C for 24 h. Then, the compounds were added in triplicate, starting at a concentration of 500 µM, with serial dilution being performed up to a concentration of 3.9 µM [54]. The treatment was carried out for 24 h, and, after adding 5 µL of resazurin, the fluorescence was read using a spectrofluorometer (EnSpire Perkin-Elmer, Waltham, MA, USA).

Series [1] deals with RAW macrophages infected with Leishmania infantum. The series is described as follows: Infectivity test / infection rate in RAW macrophages. Conditions: three concentrations (below IC50, IC50, above IC50), 24 h treatment. The class given is cell-based. The protocol: For the infection of RAW macrophages adhered to the plates, we used parasites in the promastigote form of Leishmania infantum, in the stationary phase, in a ratio of 10:1 (promastigotes/macrophages).
Macrophages were plated in the amount of 5 × 10^4 cells per well, in 96-well plates, which were kept in a CO2 oven at 37 °C for 24 h. The parasites were plated at a concentration of 10:1. The plates were kept in a CO2 oven for 12 h until the parasites infected the cells. […] Plates were fixed with paraformol for further evaluation. Plaques were evaluated by counting parasites within 200 cells under the EVOS Cell Imaging System (Thermo Scientific, Waltham, MA, USA) microscope by staining with propidium iodide.
In view of the data obtained, the six most promising compounds (HL1^Ch, HL2^Ph, Ag3, Ag4, Ag6 and Au2) were selected for carrying out the infection rate test against the L. infantum parasite. […] This test was performed at four stages. The first step determined the percentage of the amount in 200 infected macrophages per parasite, the second determined the percentage of parasites that infects 100 cells/macrophages, the third determined the average percentage of parasites that infects 200 cells/macrophages and, finally, the fourth step indicated the infection rate, that is, the result of the amount of Leishmania per macrophage (obtained from the third step) multiplied by the percentage of infected macrophages. Figure 5 presents the graphs of the infection rates, while the other graphs can be found in Figure S7.4.

Series [2] is described as follows: Solubility in buffer for the fluorescence experiments. The class given is physicochemical. Conditions: Tris-HCl buffer. The protocol: The compounds were solubilized in DMSO and then we made successive dilutions in a Tris-HCl 25 mmol L^−1 buffer, pH 8.0, containing 100 mmol L^−1 of NaCl. For all experiments, the final concentration of DMSO was kept constant and equal to 2.5%. Solutions with increasing concentrations of ligand and constant concentration of LbOYE (1 µmol L^−1) were prepared, which were kept at 25 °C for a period of 1h before acquisition of fluorescence emission spectra.
After the synthesis and structural characterization of the compounds, studies of interaction of the compounds and the recombinant LbOYE were carried out by fluorescence measurements.

Series [3] in a line: Cytotoxicity assay on Vero cells (resazurin). The class given is cell-based, African green monkey. Conditions: African green monkey, Vero cells (ATCC CRL-1587), 24 h treatment. As for the experimental part:
as §4

On to `Cc1ccc(S(=O)(=O)NNC(NC2CCCCC2)=[S][Ag+][S]=C(NNS(=O)(=O)c2ccc(C)cc2)NC2CCCCC2)cc1.O=[N+]([O-])[O-]` [Ag1, [Ag(HL1^Ch)2]NO3], for which, in the series on Leishmania infantum, the IC50 came out at 57.42 ± 0.028 µM and the “SI L. infantum” value was found to be 0.129. Moreover, in the series on Leishmania braziliensis, the half-inhibitory concentration (IC50) is 50.15 ± 0.02 µM and the “SI L. braziliensis” value was 0.15. The compound also yielded a 50% cytotoxic concentration (CC50) in the series on Vero cells of 7.4 µM.
For `Cc1ccc(S(=O)(=O)NNC(Nc2ccccc2)=[S][Ag+][S]=C(NNS(=O)(=O)c2ccc(C)cc2)Nc2ccccc2)cc1.O=[N+]([O-])[O-]` [Ag2, [Ag(HL2^Ph)2]NO3], in that order: 280.5 ± 0.167 µM, 0.33, 183.7 ± 0.027 µM, 0.50 and 92.1 µM.
In the case of `Cc1ccc(S(=O)(=O)NNC(Nc2ccc(Cl)cc2)=[S][Ag+][S]=C(NNS(=O)(=O)c2ccc(C)cc2)Nc2ccc(Cl)cc2)cc1.O=[N+]([O-])[O-]` [Ag4, [Ag(HL4^ClPh)2]NO3], the half-inhibitory concentration (IC50) with Leishmania infantum is 72.17 ± 0.036 µM. For the same compound, in the series on Leishmania braziliensis, the 50% inhibitory concentration (IC50) was determined as 84.62 ± 0.116 µM and the “SI L. braziliensis” value is given as over 5.91. Moreover, the “Infection rate of L. infantum in macrophages, in words” value (“Infection rate of L. infantum” below) in series [1] is listed as “did not show a promising infection rate”. The CC50 in the series on Vero cells is over 500 µM.
`Cc1ccc(S(=O)(=O)NNC(Nc2ccc([N+](=O)[O-])cc2)=[S][Ag+][S]=C(NNS(=O)(=O)c2ccc(C)cc2)Nc2ccc([N+](=O)[O-])cc2)cc1.O=[N+]([O-])[O-]` [Ag5, [Ag(HL5^NO2Ph)2]NO3]: in the series with Leishmania infantum, the IC50 is 78.79 ± 0.091 µM. For the same compound, in the series with Leishmania braziliensis, the IC50 is 90.73 ± 0.236 µM and the “SI L. braziliensis” value was 5.44. In the series with Vero cells, this compound returned a cytotoxic concentration (CC50) of 493 µM.
Turning to `C=CCNC(NNS(=O)(=O)c1ccc(C)cc1)=[S][Ag+][S]=C(NCC=C)NNS(=O)(=O)c1ccc(C)cc1.O=[N+]([O-])[O-]` [Ag6, [Ag(HL6^Al)2]NO3], the “Solubility in buffer at the concentrations for the fluorescence experiments, in words” value (shortened to “Solubility in buffer”) in series [2] is listed as “not soluble in the buffer used for the experiment”. Moreover, in the series with Leishmania infantum, the half-maximal inhibitory concentration (IC50) stood at 78.59 ± 0.605 µM and the “SI L. infantum” value was over 6.36. In addition, in the series with Leishmania braziliensis, the IC50 turned out to be 305.2 ± 0.032 µM and the “SI L. braziliensis” value is recorded as over 1.64. Further, in series [1], the “Infection rate of L. infantum” value is reported as “able to inhibit the parasite infection inside the cells even at lower concentrations than that determined by their IC50 values; also recorded: able to inhibit the parasite infection even at lower concentrations than that of their IC50 values”. The cytotoxic concentration (CC50) in the series on Vero cells is over 500 µM.
In the case of `Cc1ccc(S(=O)(=O)NNC(Nc2ccccc2)=[S][Au+][S]=C(NNS(=O)(=O)c2ccc(C)cc2)Nc2ccccc2)cc1.[Cl-]` [Au2, [Au(HL2^Ph)2]Cl], in the series with Leishmania infantum, the IC50 is 41.69 ± 0.21 µM and the “SI L. infantum” value is listed as 7.09. Moreover, in the series on Leishmania braziliensis, the half-inhibitory concentration (IC50) turned out to be 143.2 ± 0.085 µM and the “SI L. braziliensis” value stood at 2.06. Further, the “Infection rate of L. infantum” value in series [1] is reported as “able to inhibit the parasite infection inside the cells even at lower concentrations than that determined by their IC50 values; also recorded: able to inhibit the parasite infection even at lower concentrations than that of their IC50 values”. For the same compound, in the series with Vero cells, it took 296 µM to reach half-maximal cytotoxicity (CC50).
For `Cc1ccc(S(=O)(=O)NNC(Nc2ccc(F)cc2)=[S][Au+][S]=C(NNS(=O)(=O)c2ccc(C)cc2)Nc2ccc(F)cc2)cc1.[Cl-]` [Au3, [Au(HL3^FPh)2]Cl], in the series with Leishmania infantum, the IC50 was determined as 173.9 ± 0.087 µM and the “SI L. infantum” value is on record as 0.17. Also, in the series with Leishmania braziliensis, the concentration for half-maximal inhibition (IC50) is 194.9 ± 0.063 µM and the “SI L. braziliensis” value amounted to 0.15. Further, half-maximal cytotoxicity in the series with Vero cells (CC50) was put at 28.8 µM.
For the compound `Cc1ccc(S(=O)(=O)NNC(Nc2ccc([N+](=O)[O-])cc2)=[S][Au+][S]=C(NNS(=O)(=O)c2ccc(C)cc2)Nc2ccc([N+](=O)[O-])cc2)cc1.[Cl-]` [Au5, [Au(HL5^NO2Ph)2]Cl], in the series on Leishmania infantum, the 50% inhibitory concentration (IC50) came to 295.5 ± 0.259 µM and the “SI L. infantum” value came to 0.198. In the series on Leishmania braziliensis, the half-inhibitory concentration (IC50) stood at 284 ± 0.259 µM and the “SI L. braziliensis” value is 0.21. Moreover, the cytotoxic concentration (CC50) in the series with Vero cells was 58.6 µM.
On to `C=CCNC(NNS(=O)(=O)c1ccc(C)cc1)=[S][Au+][S]=C(NCC=C)NNS(=O)(=O)c1ccc(C)cc1.[Cl-]` [Au6, [Au(HL6^Al)2]Cl], for which the “Solubility in buffer” value in series [2] was “not soluble in the buffer used for the experiment”. Also, in the series with Leishmania infantum, the IC50 is 62.54 ± 0.151 µM and the “SI L. infantum” value was determined as 1.24. Further, in the series with Leishmania braziliensis, the concentration for half-maximal inhibition (IC50) turned out to be 5554 ± 1.37 µM and the “SI L. braziliensis” value is recorded as 0.01. The same compound displayed a CC50 in the series on Vero cells of 77.5 µM.
Take `Cc1ccc(S(=O)(=O)NNC(=S)Nc2ccc(Cl)cc2)cc1` [HL4^ClPh, N-(4-chlorophenyl)-2-tosylhydrazinocarbothioamide]: the figures for the IC50 with Leishmania infantum (Leishmania infantum) and with Leishmania braziliensis (Leishmania braziliensis) were 108.4 ± 0.104 µM and 133.8 ± 0.036 µM, respectively. Further, the “SI L. infantum” value in the series with Leishmania infantum was determined as 0.16. The “SI L. braziliensis” value with Leishmania braziliensis is 0.13. Further, the 50% cytotoxic concentration (CC50) at 24 h in series [3] was 16.8 µM.
Consider `C=CCNC(=S)NNS(=O)(=O)c1ccc(C)cc1` [HL6^Al, N-allyl-2-tosylhydrazinocarbothioamide], for which the “Solubility in buffer” value in series [2] was “not soluble in the buffer used for the experiment”. Also, the IC50 with Leishmania infantum (Leishmania infantum) worked out at 812.8 ± 0.515 µM; in the series with Leishmania braziliensis (Leishmania braziliensis), 313.5 ± 0.063 µM. Also, the “SI L. infantum” value in the series with Leishmania infantum amounted to 0.23. In addition, the “SI L. braziliensis” value in the series with Leishmania braziliensis amounted to 0.60. This compound had a CC50 at 24 h in series [3] of 188 µM.
